Measured values reported in patent US10975037B2 (priority 2018, dated 2021).
Where a name gives a salt, the structure may show the parent alone. Read-outs that look alike come from different tables or passages of the source.

Legend:
[1] = target: human RORγt ligand binding domain (RORγt LBD) (Homo sapiens (Human), UniProt P51449); test: RORγt ThermoFluor® assay (thermal shift binding)
Description: This approach is applicable to a wide variety of systems, and rigorous in theoretical interpretation through quantitation of equilibrium binding constants (KD).
The shift in the melting point described as a ΔTm is proportional to the concentration and affinity of the ligand.
RORγt ThermoFluor® Assay Construct
Reference wells contained RORγt without compounds, and the assay conditions were as follows: • 0.065 mg/mL RORγt • 60 μM 1,8-ANS • 100 mM Hepes, pH 7.0 • 10 mM NaCl • 2.5 mM GSH • 0.002% Tween-20
Project compounds were arranged in a pre-dosed mother plate (Greiner Bio-one) wherein compounds are serially diluted in 100% DMSO by 1:2 from a high concentration of 10 mM over 12 columns within a series (column 12 is a reference well containing DMSO, no compound). The compounds were robotically dispensed directly into assay plates (1×=46 nL) using a Hummingbird capillary liquid handling instrument (Digilab). Following compound dispense, protein and dye in buffer was added to achieve the final assay volume of 3 μL, followed by 1 μL of silicone oil.

full-length human RORγt = full-length human RORγt (Homo sapiens (Human), UniProt P51449); test: RORγt (full-length human) reporter assay, conditions A or B, HEK293T cells; format: cell-based; conditions: for inhibition at 0.07 µM: 0.07 μM compound concentration (footnote *********); for inhibition at 2 µM: 2 μM compound concentration; for inhibition at 3 µM: 3 μM compound concentration (footnote *)
Summary of the method: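 After 16–20 h, dual firefly/Renilla luciferase luminescence was read. Firefly signal was normalized to DMSO and saturating reference compound, then to Renilla, and fitted for IC50; % inhibition is versus DMSO.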

[2] = read-out: ThermoFluor® Assay, Kd
[3] = HEK-293T, read-out: RORγt (FL) Reporter Assay A or B, % inhibition
[4] = RORγt (FL) Reporter Assay A or B, IC50, HEK293T cells

Sequence of human RORγt ligand binding domain (RORγt LBD) (P51449 other isoform, or with tags, fused parts or gaps): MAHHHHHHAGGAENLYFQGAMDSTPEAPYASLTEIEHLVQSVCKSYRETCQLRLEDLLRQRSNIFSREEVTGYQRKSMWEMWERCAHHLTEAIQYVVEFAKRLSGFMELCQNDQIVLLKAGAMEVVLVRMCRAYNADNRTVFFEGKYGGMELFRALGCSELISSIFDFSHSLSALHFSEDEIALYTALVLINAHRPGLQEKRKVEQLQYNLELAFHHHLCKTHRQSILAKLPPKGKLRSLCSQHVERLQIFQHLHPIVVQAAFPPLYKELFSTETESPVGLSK
Sequence of full-length human RORγt (P51449 other isoform, or with tags, fused parts or gaps): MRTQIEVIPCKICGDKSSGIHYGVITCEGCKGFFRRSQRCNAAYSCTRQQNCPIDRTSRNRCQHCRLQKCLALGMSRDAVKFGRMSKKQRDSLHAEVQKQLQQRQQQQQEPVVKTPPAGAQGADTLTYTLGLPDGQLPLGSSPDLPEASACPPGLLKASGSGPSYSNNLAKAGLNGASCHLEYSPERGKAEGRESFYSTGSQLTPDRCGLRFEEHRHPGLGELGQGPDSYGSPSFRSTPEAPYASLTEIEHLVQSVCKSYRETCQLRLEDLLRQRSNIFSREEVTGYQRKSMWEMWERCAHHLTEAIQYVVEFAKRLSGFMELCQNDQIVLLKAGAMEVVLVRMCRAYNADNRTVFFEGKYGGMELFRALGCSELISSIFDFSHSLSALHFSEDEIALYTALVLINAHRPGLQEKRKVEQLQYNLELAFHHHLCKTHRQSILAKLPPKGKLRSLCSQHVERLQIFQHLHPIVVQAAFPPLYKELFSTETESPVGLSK

Structure (SMILES) | Kd [1, 2] | IC50 (full-length human RORγt; [4]) | inhibition at 2 µM (full-length human RORγt; [3]) | further results
CCn1nc(C(=O)NC[C@H]2CC[C@H](S(C)(=O)=O)CC2)c(C)c1-c1ccc(CC(C(F)(F)F)C(F)(F)F)cc1OC(F)F [Example 87, 5-(2-(Difluoromethoxy)-4-(3,3,3-trifluoro-2-(trifluoromethyl)propyl)phenyl)-1-ethyl-4-methyl-N-(((1r,4r)-4-(methylsulfonyl)cyclohexyl)methyl)-1H-pyrazole-3-carboxamide] | 0.14 nM | 3 nM |  | inhibition at 0.07 µM (full-length human RORγt; [3]): 100%
CCn1nc(C(=O)NC[C@H]2CC[C@H](S(C)(=O)=O)C[C@@H]2O)c(Cl)c1-c1ccc(CC(C)(C)C(F)(F)F)cc1OC(F)F (single isomer, unassigned) [Example 21, 4-Chloro-5-(2-(difluoromethoxy)-4-(3,3,3-trifluoro-2,2-dimethylpropyl)phenyl)-1-ethyl-N-(((1R*,2S*,4S*)-2-hydroxy-4-(methylsulfonyl)cyclohexyl)methyl)-H-pyrazole-3-carboxamide] |  | 3.6 nM |  | Kd ([1]; ThermoFluor® Assay, Kd): 0.37 nM; inhibition at […] (full-length human RORγt; HEK-293T, 0.33 μM compound concentration (footnote *****), read-out: RORγt (FL) Reporter Assay A or B, % inhibition): 103%
CCn1nc(C(=O)NC[C@H]2CC[C@@H](S(C)(=O)=O)CC2)c(Cl)c1-c1ccc(N[C@H](C)C(F)(F)F)cc1Cl [Example 175, 4-Chloro-5-(2-chloro-4-(((R)-1,1,1-trifluoropropan-2-yl)amino)phenyl)-1-ethyl-N-(((1s,4S)-4-(methylsulfonyl)cyclohexyl)methyl)-1H-pyrazole-3-carboxamide] | 230 nM | 510 nM | 88% | 
COCCn1nc(C(=O)NC[C@]2(O)CC[C@@H](S(C)(=O)=O)CC2)c(C)c1-c1ccc(CC(C)(C)C(F)(F)F)cc1OC(F)F [Example 150, 5-(2-(Difluoromethoxy)-4-(3,3,3-trifluoro-2,2-dimethylpropyl)phenyl)-N-(((1s,4s)-1-hydroxy-4-(methylsulfonyl)cyclohexyl)methyl)-1-(2-methoxyethyl)-4-methyl-1H-pyrazole-3-carboxamide] | 1.9 nM | 13 nM | 95% | 
CCn1nc(C(=O)NC[C@]2(O)CC[C@@H](S(C)(=O)=O)CC2)c(Cl)c1-c1ccc(CC(C)(C)C(F)(F)F)cc1 [Example 167, 4-Chloro-1-ethyl-N-(((1s,4s)-1-hydroxy-4-(methylsulfonyl)cyclohexyl)methyl)-5-(4-(3,3,3-trifluoro-2,2-dimethylpropyl)phenyl)-1H-pyrazole-3-carboxamide] | 8.6 nM | 24 nM |  | inhibition at 0.67 µM (full-length human RORγt; HEK-293T, 0.67 μM compound concentration (footnote ****), read-out: RORγt (FL) Reporter Assay A or B, % inhibition): 83%
CCn1nc(C(=O)NC[C@H]2CC[C@H](S(C)(=O)=O)CC2)c(Cl)c1-c1ccc(OC(C)C(F)(F)F)cc1OC (stereo partly drawn) [Example 212, 4-Chloro-1-ethyl-5-(2-methoxy-4-((1,1,1-trifluoropropan-2-yl)oxy)phenyl)-N-(((1r,4r)-4-(methylsulfonyl)cyclohexyl)methyl)-1H-pyrazole-3-carboxamide] | 7.4 nM | 33 nM | 81% | 
CCn1nc(C(=O)NC[C@]2(C#N)CC[C@@H](S(C)(=O)=O)CC2)c(Cl)c1-c1ccc(CC(C)(C)C(F)(F)F)cc1Cl [Example 166, 4-Chloro-5-(2-chloro-4-(3,3,3-trifluoro-2,2-dimethylpropyl)phenyl)-N-(((1s*,4s*)-1-cyano-4-(methylsulfonyl)cyclohexyl)methyl)-1-ethyl-1H-pyrazole-3-carboxamide] | 0.71 nM | 0.92 nM |  | inhibition at 0.07 µM (full-length human RORγt; [3]): 88%
CCn1nc(C(=O)NC[C@H]2CC[C@H](S(C)(=O)=O)CC2)c(Cl)c1-c1ccc(NC(C(F)(F)F)C(F)(F)F)cc1OC [Example 216, 4-Chloro-1-ethyl-5-(4-((1,1,1,3,33-hexafluoropropan-2-yl)amino)-2-methoxyphenyl)-N-(((1r,4r)-4-(methylsulfonyl)cyclohexyl)methyl)-1H-pyrazole-3-carboxamide] | 0.97 nM | 28 nM | 107% | 
Cn1nc(C(=O)NC[C@]2(O)CC[C@@H](S(C)(=O)=O)C[C@H]2O)c(Cl)c1-c1ccc(CCCC(F)(F)F)cc1OC(F)F (stereo in doubt) [Example 160, 4-Chloro-5-(2-(difluoromethoxy)-4-(4,4,4-trifluorobutyl)phenyl)-N-(((1R*,2R*,4R*)-1,2-dihydroxy-4-(methylsulfonyl)cyclohexyl)methyl)-1-methyl-1H-pyrazole-3-carboxamide] |  | 27 nM |  | Kd ([1]; ThermoFluor® Assay, Kd): 39 nM; inhibition at 3 µM (full-length human RORγt; [3]): 96%
CCn1nc(C(=O)NC[C@H]2CC[C@H](S(C)(=O)=O)CC2)c(Cl)c1-c1ccc(CCC(F)(F)F)cc1C(F)(F)F [Example 171, 4-Chloro-1-ethyl-N-(((1r,4r)-4-(methylsulfonyl)cyclohexyl)methyl)-5-(2-(trifluoromethyl)-4-(3,3,3-trifluoropropyl)phenyl)-1H-pyrazole-3-carboxamide] | 14 nM | 440 nM | 24% | 
CCn1nc(C(=O)NC[C@H]2CC[C@H](S(C)(=O)=O)C[NH+]2CC(=O)ON)c(Cl)c1-c1ccc(CC(C)(C)C(F)(F)F)cc1OC(F)F (stereo in doubt) [Example 64, N-(((2R*,5S*)-1-(2-(Aminooxy)-2-oxoethyl)-5-(methylsulfonyl)piperidin-2-yl)methyl)-4-chloro-5-(2-(difluoromethoxy)-4-(3,3,3-trifluoro-2,2-dimethylpropyl)phenyl)-1-ethyl-1H-pyrazole-3-carboxamide Trifluoroacetic Acid Salt] |  | 51 nM |  | Kd ([1]; ThermoFluor® Assay, Kd): 3.2 nM; inhibition at 3 µM (full-length human RORγt; [3]): 119%
COc1cc(N[C@H](C)C(F)(F)F)ccc1-c1c(Cl)c(C(=O)NC[C@H]2CC[C@H](S(C)(=O)=O)CC2)nn1CC(C)C [Example 28, 4-Chloro-1-isobutyl-5-(2-methoxy-4-(((R)-1,1,1-trifluoropropan-2-yl)amino)phenyl)-N-(((1r,4R)-4-(methylsulfonyl)cyclohexyl)methyl)-1H-pyrazole-3-carboxamide] | 2.5 nM | 23 nM | 103% | 
CCn1nc(C(=O)NC[C@H]2CC[C@H](S(C)(=O)=O)CC2)c(Cl)c1-c1ccc(OCCC(F)(F)F)cc1OC [Example 213, 4-Chloro-1-ethyl-5-(2-methoxy-4-(3,3,3-trifluoropropoxy)phenyl)-N-(((1r,4r)-4-(methylsulfonyl)cyclohexyl)methyl)-1H-pyrazole-3-carboxamide] | 34 nM | 77 nM | 77% | 
CCn1nc(C(=O)NC[C@H]2CC[C@H](S(C)(=O)=O)CC2)c(C(F)(F)F)c1-c1ccc(N[C@H](C)C(F)(F)F)cc1OC [Example 218, 1-Ethyl-5-(2-methoxy-4-(((R)-1,1,1-trifluoropropan-2-yl)amino)phenyl)-N-(((1r,4R)-4-(methylsulfonyl)cyclohexyl)methyl)-4-(trifluoromethyl)-1H-pyrazole-3-carboxamide] | 6.3 nM |  |  | RORγt (FL) Reporter Assay A or B, % inhibition @ 6 μM (full-length human RORγt; 6 μM compound concentration): 105%; IC50 (full-length human RORγt; HEK293T cells, read-out: RORγt (FL) Reporter Assay A or B, IC50): 61 nM
CCCn1nc(C(=O)NC[C@H]2CC[C@H](S(C)(=O)=O)CC2)c(Cl)c1-c1ccc(N[C@H](C)C(F)(F)F)cc1OC [Example 30, 4-Chloro-5-(2-methoxy-4-(((R)-1,1,1-trifluoropropan-2-yl)amino)phenyl)-N-(((1r,4R)-4-(methylsulfonyl)cyclohexyl)methyl)-1-propyl-1H-pyrazole-3-carboxamide] | 2.1 nM | 27 nM | 104% | 
CCn1nc(C(=O)NC[C@@]2(O)CC[C@H](S(C)(=O)=O)C[C@@H]2N)c(Cl)c1-c1ccc(CC(C)(C)C(F)(F)F)cc1OC(F)F (stereo in doubt) [Example 7, N-(((1S*,2S*,4S*)-2-Amino-1-hydroxy-4-(methylsulfonyl)cyclohexyl)methyl)-4-chloro-5-(2-(difluoromethoxy)-4-(3,3,3-trifluoro-2,2-dimethylpropyl)phenyl)-1-ethyl-1H-pyrazole-3-carboxamide hydrobromide] |  | 68 nM |  | Kd ([1]; ThermoFluor® Assay, Kd): 2.1 nM; inhibition at 1 µM (full-length human RORγt; HEK-293T, 1 μM compound concentration (footnote ***), read-out: RORγt (FL) Reporter Assay A or B, % inhibition): 103%
CC(C)(O)Cn1nc(C(=O)NC[C@H]2CC[C@H](S(C)(=O)=O)CC2)c(Cl)c1-c1ccc(CC(C)(C)C(F)(F)F)cc1OC(F)F [Example 145, 4-Chloro-5-(2-(difluoromethoxy)-4-(3,3,3-trifluoro-2,2-dimethylpropyl)phenyl)-1-(2-hydroxy-2-methylpropyl)-N-(((1r,4r)-4-(methylsulfonyl)cyclohexyl)methyl)-1H-pyrazole-3-carboxamide] | 2.5 nM | 13 nM | 105% | 
